According to US8241607B2, “Use of fructose-based compounds for the diagnosis of cancer” (priority 2005, dated 2012):

Legend:
[1] = Serum fructose in normal volunteers after two cans of soda (fructose dehydrogenase assay); format: in vivo, human; conditions: 3 normal volunteers
Procedure: FIG. 37 depicts fasting serum fructose and glucose levels in patients with pancreatic cancer and in normal volunteers in accordance with an embodiment of the present invention. (a) Fasting serum fructose and glucose levels in 6 patients with pancreatic cancer on the morning of resection. (b) Serum fructose, and glucose levels (Mean±SEM) in 3 normal volunteers after a 10 h fast, followed by ingestion of two cans of soda, containing 76 g of carbohydrate in the form of high fructose corn syrup (55% fructose, 45% glucose).
The normal circulating concentrations of fructose are unknown. […] Briefly, aliquots (20 μl) of fructose standards (0.1, 0.5, 1, 2, 4, 6, and 8 mM) or unknown serum samples were mixed with 5 μl of a stock solution (125 U/ml) of the enzyme fructose dehydrogenase (Sigma) in 175 μl citric acid (0.05 M) phosphate (0.09 M) buffer (pH 4.5), and 20 μl of 3-(4,5-dimethylthiazol-2yl)-2,5-diphenyltetrazolium bromide (MTT), and phenazine methosulfate (Promega), incubated for 30 minutes, after which absorbance at 570 nm was recorded in a 96-well spectrophotometer. […] As the first analysis, in accordance with institutional review board guidelines, the inventors obtained 32 serum samples randomly selected from anonymous inpatients at Cedars-Sinai Medical Center. The inventors also measured glucose in these same samples using standard glucose oxidase based methods. […]

MAPK pathway = assay: Western blot of MAPK pathway in breast cancer cells; format: cell-based
Procedure: FIG. 11 depicts increased breast cancer phosphorylated-MEK, phosphorylated Rsk, and phosphorylated CREB in accordance with an embodiment of the present invention. MCF-7 breast cancer cells were incubated in 2 mM glucose, 5 mM glucose or 5 mM fructose for 24 hours, after which Western blot analysis on total protein lysates was employed to examine components of the MAP kinase pathway. […] Total MEK, Rsk, and CREB levels, and β-actin served as loading controls.
Although several signal transduction pathways are likely involved in the fructose-mediated enhanced breast cancer growth and while not wishing to be bound by any particular theory, the inventors believe that the MAP-kinase pathway is involved. The inventors have used Western blot analysis to examine the MAPK pathway in breast cancer cells incubated in 2 mM glucose, 5.5 mM glucose, and 5.5 mM fructose for 48 hours. […] Activation of MEK, and subsequently ERK results in phosphorylation of p90^Rsk, which leads to transcriptional activation of CREB and AP1, which bind to cAMP or AP1 response elements respectively, activating gene transcription and promoting cellular growth.

[2] = breast cancer cells, 5.5 mM fructose, 24 h, vs 5.5 and 2 mM glucose

## O=C(CO)[C@@H](O)[C@H](O)[C@H](O)CO [fructose]
[1]; 30 minutes after two sodas
  mean serum fructose levels, peak: 17 mM
[1]; for the 2 hour duration of blood sampling
  serum fructose levels: greater than 5 mM
MAPK pathway; MCF-7 and MDA-MB231, 5.5 mM fructose vs 5.5 and 2 mM glucose
  phospho-MEK (pMEK) expression: increased expression
MAPK pathway; [2]
  phospho-CREB (pCREB): increased
  phospho-Rsk (pRsk): increased
